System: horseweed (Erigeron canadensis)
Assay: Test A1 postemergence, horseweed
Format: in vivo
Details: for Plant response rating, Horseweed: Postemergence; for Horseweed plant response rating: postemergence
How it was run: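 Plants were grown in a loam soil/sand blend, with test chemicals formulated in a non-phytotoxic solvent mixture containing surfactant. Preemergence treatment (corn) was a directed soil spray at planting. Postemergence treatment was applied to plants 2 to 10 cm tall at the one- to two-leaf stage.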

[1] = 31 g ai/ha, 0 to 100 scale (0 no effect, 100 complete control)
[2] = 125 g ai/ha, 0 to 100 scale (0 no effect, 100 complete control), 10 days
[3] = 31 g ai/ha, 0 to 100 scale (0 no effect, 100 complete control), 10 days

Row | SMILES | Plant response rating, Horseweed (125 g ai/ha, 0 to 100 scale) | Horseweed plant response rating [1] | Plant response rating, Horseweed [2] | Plant response rating, Horseweed [3]
1 | CCC1CC(c2cc(NS(=O)(=O)C(F)(F)F)c(C)cc2C)=NO1 (stereo not shown) [Compound 375] | 50 |  |  | 
2 | COC1CCC2(CC1)CCN(c1cc(NS(=O)(=O)C(F)(F)F)c(C)cc1C)C2=O (stereo not shown) [Compound 398] |  | 20 | 50 | 
3 | Cc1cc(C)c(N2Cc3cccc(Br)c3C2=O)cc1NS(=O)(=O)Cl [Compound 415] |  | 60 |  | 
4 | Cc1ccc(C2=NOC3CCCC23)cc1NS(=O)(=O)C(F)(F)F (stereo not shown) [Compound 377] | 80 | 30 |  | 
5 | Cc1c(C2=NOC3(CCCC3)C2)cc(N(COC(=O)C(C)(C)C)S(=O)(=O)C(F)(F)F)c(C)c1C [Compound 382] |  | 0 | 50 | 
6 | Cc1cc(C)c(N2CCC3(CCC(C)CC3)C2=O)cc1NS(=O)(=O)C(F)(F)F (stereo not shown) [Compound 402] |  | 20 | 50 | 
7 | Cc1cc(Cl)c(NS(=O)(=O)C(F)(F)F)cc1N1CCC2(CCCCC2)C1=O [Compound 393] |  | 0 | 30 | 
8 | CCOC(=O)N(c1cc(C2=NOC3CCCC23)c(CC)cc1C)S(=O)(=O)C(F)(F)F (stereo not shown) [Compound 379] | 50 | 0 |  | 
9 | Cc1cc(Cl)c(NS(=O)(=O)C(F)(F)F)cc1N1CC2(CCCCC2)OC1=O [Compound 394] |  | 30 | 80 | 
10 | Cc1cc(C)c(N(COC(=O)C(C)(C)C)S(=O)(=O)C(F)(F)F)cc1N1CCC2(CCC(C)CC2)C1=O (stereo not shown) [Compound 401] |  | 0 | 0 | 
11 | Cc1cc(C)c(C2=NOC3OCCCC23)cc1NS(=O)(=O)C(F)(F)F (stereo not shown) [Compound 372] |  | 0 |  | 
12 | Cc1c(NS(=O)(=O)C(F)(F)F)cc(C(=O)N2CCSCC2)c(C)c1C [Compound 283] | 80 |  |  | 70
13 | Cc1cc(C)c(N2CCC3(CCC(C(F)(F)F)CC3)C2=O)cc1NS(=O)(=O)C(F)(F)F (stereo not shown) [Compound 400] |  | 30 | 80 | 
14 | COc1cccc2c1C(=O)N(c1cc(N(COC(=O)C(C)(C)C)S(=O)(=O)Cl)c(C)cc1C)C2 [Compound 413] |  | 40 | 90 | 
15 | Cc1cc(C)c(N(COC(=O)C(C)(C)C)S(=O)(=O)C(F)(F)F)cc1N1CCC2(CCC(C(F)(F)F)CC2)C1=O (stereo not shown) [Compound 403] |  | 0 | 30 | 
16 | Cc1c(C(=O)N2CCSCC2)cc(N(COC(=O)C(C)(C)C)S(=O)(=O)C(F)(F)F)c(C)c1C [Compound 285] | 80 |  |  | 70
17 | CCOC(=O)N(c1cc(C(=O)N2CCSCC2)c(C)c(C)c1C)S(=O)(=O)C(F)(F)F [Compound 286] | 60 |  |  | 0
18 | Cc1cc(C)c(N(COC(=O)C(C)(C)C)S(=O)(=O)C(F)(F)F)cc1C1=NOC(C(C)C)C1 (stereo not shown) [Compound 383] |  | 0 | 30 | 
19 | CCc1cc(C)c(N(COC(=O)C(C)(C)C)S(=O)(=O)C(F)(F)F)cc1C1=NOC2CCCC12 (stereo not shown) [Compound 378] | 90 | 0 |  | 
20 | Cc1cc(C)c(C2=NOC(C(C)C)C2)cc1NS(=O)(=O)C(F)(F)F (stereo not shown) [Compound 381] |  | 0 | 30 | 
